Data published in patent US5212310A (priority 1991, dated 1993).

Columns and labels:
[1] = test system: clonazepam-sensitive benzodiazepine binding site; conditions: cited from earlier work
[2] = target: GABAa receptor; test: GABAa receptor binding assay, displacement of 3H-RO15-1788 [3H-Flumazenil] in rat cortical tissue; conditions: 0.5 nM 3H-RO15-1788 [3H-Flumazenil], 30 min at 4° C., pH 7.4
Procedure: The pharmaceutical utility of compounds of this invention are indicated by the following assay for GABAa receptor activity.
Assays are carried out as described in Thomas and Tallman (J. Bio. Chem. 156: 9838-9842, J. Neurosci. 3:433-440, 1983). Rat cortical tissue is dissected and homogenized in 25 volumes (w/v) of 0.05M Tris HCl buffer (pH 7.4 at 4° C.). The tissue homogenate is centrifuged in cold (4°) at 20,000×g for 20'. The supernatant is decanted and the pellet is rehomogenized in the same volume of buffer and again centrifuged at 20,000×g. The supernatant is decanted and the pellet is frozen at -20° C. overnight. The pellet is then thawed and rehomogenized in 25 volume (original wt/vol) of buffer and the procedure is carried out twice. The pellet is finally resuspended in 50 volumes (w/vol of 0.05M Tris HCl buffer (pH 7.4 at […]).
Incubations contain […] of radioligand 0.5 nM (^3 H-RO15-1788 [^3 H-Flumazenil] specific activity 80 Ci/mmol), drug or blocker and buffer to a total volume of […]. Incubations are carried for 30 min at 4° C. then are rapidly filtered through GFB filters to separate free and bound ligand. Filters are washed twice with fresh 0.05M Tris HCl buffer (pH 7.4 at 4° C.) and counted in a liquid scintillation counter. […] diazepam is added to some tubes to determine nonspecific binding. Data are collected in triplicate determinations, averaged and % inhibition of total specific binding is calculated. Total Specific Binding=Total-Nonspecific. In some cases, the amounts of unlabeled drugs is varied and total displacement curves of binding are carried out. Data are converted to a form for the calculation of IC50 and Hill Coefficient (nH).

Row | SMILES | block of enhancement of benzodiazepine binding by GABA agonists [1] | IC50 [2]
1 | CN1CCc2cc3c(cc2[C@H]1[C@@H]1OC(=O)c2c1ccc1c2OCO1)OCO3 [(+) bicuculline] | blocked | –
2 | CN1CCc2cc3c(cc2[C@@H]1[C@H]1OC(=O)c2c1ccc1c2OCO1)OCO3 [(-) bicuculline] | much less active | –
3 | O=c1[nH]c2ccncc2c2nc(-c3ccccc3F)cn12 [Compound 1, 2-(2-Fluorophenyl)-imidazol[1,2-c]pyrido[3,4-e]pyrimidin-5(6H)-one] | – | 42 nM
4 | O=c1[nH]c2ccncc2c2nc(-c3ccccc3)cn12 [Compound 2, 2-Phenyl-imidazo[1,2-c]pyrido[3,4-e]pyrimidin-5(6H)-one] | – | 169 nM
5 | O=c1[nH]c2cccnc2c2nc(-c3ccccc3)cn12 [Compound 15, 2-Phenylimidazo[1,2-c]pyrido[2,3-e]pyrimidin-5(6H)-one] | – | 132 nM
